From ChEMBL document CHEMBL1201862, “PubChem BioAssay data set” (2004)
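96-well plates; 48 h exposure; 5 concentrations. Endpoints by linear interpolation between flanking doses. Not reached: highest tested concentration assigned. GI50: concentration for 50% inhibition of growth.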 Activity calls are given as the source filed them. Rule as the data show it: active = GI50 up to about 1.1 µM and inactive = higher.

Experiments:
Assay in all cases: inhibition of tumour cell growth, NCI panel, 48 h
U-251 = test system: U-251
SW-620 = test system: SW-620
RXF 393 = test system: RXF 393
OVCAR-8 = test system: OVCAR-8
HCT-116 = test system: HCT-116
NCI/ADR-RES = test system: NCI/ADR-RES
HOP-92 = test system: HOP-92
HL-60 = test system: HL-60
HCT-15 = test system: HCT-15
DU-145 = test system: DU-145
ACHN = test system: ACHN
SF-268 = test system: SF-268
SF-295 = test system: SF-295
SN12C = test system: SN12C
NCI-H460 = test system: NCI-H460
IGROV-1 = test system: IGROV-1
786-0 = test system: 786-0
TK-10 = test system: TK-10

Row | Structure (SMILES) | GI50 (U-251) | GI50 (SW-620) | GI50 (RXF 393) | GI50 (OVCAR-8) | GI50 (HCT-116) | GI50 (NCI/ADR-RES) | GI50 (HOP-92) | GI50 (HL-60) | GI50 (HCT-15) | GI50 (DU-145) | GI50 (ACHN) | GI50 (SF-268) | GI50 (SF-295) | GI50 (SN12C) | GI50 (NCI-H460) | GI50 (IGROV-1) | GI50 (786-0) | GI50 (TK-10)
1 | O=C(O)/C=C\C(=O)Nc1ccccn1 | > 100 µM (inactive) | > 100 µM (inactive) | > 100 µM (inactive) | > 100 µM (inactive) | > 100 µM (inactive) | > 100 µM (inactive) | > 100 µM (inactive) | > 100 µM (inactive) | > 100 µM | > 100 µM (inactive) | > 100 µM (inactive) | > 100 µM (inactive) | > 100 µM (inactive) | > 100 µM (inactive) | > 100 µM (inactive) | > 100 µM (inactive) | > 100 µM (inactive) | –
2 | O=[N+]([O-])C(/C=C(\Cl)n1nnc2ccccc21)=C(/Cl)n1nnc2ccccc21 | > 100 µM (inactive) | – | > 100 µM (inactive) | – | > 100 µM (inactive) | > 100 µM (inactive) | > 100 µM (inactive) | – | > 100 µM | > 100 µM (inactive) | > 100 µM (inactive) | > 100 µM (inactive) | > 100 µM (inactive) | > 100 µM (inactive) | > 100 µM (inactive) | > 100 µM (inactive) | > 100 µM (inactive) | > 100 µM (inactive)
3 | O=c1oc2ccccc2cc1-c1cc2ccccn2c1 | > 100 µM (inactive) | > 100 µM (inactive) | > 100 µM (inactive) | > 100 µM (inactive) | > 100 µM (inactive) | > 100 µM (inactive) | > 100 µM (inactive) | > 100 µM (inactive) | > 100 µM | > 100 µM (inactive) | > 100 µM (inactive) | > 100 µM (inactive) | > 100 µM (inactive) | – | > 100 µM (inactive) | > 100 µM (inactive) | > 100 µM (inactive) | > 100 µM (inactive)
4 | O=C1CCC(=O)N1CNc1ccc2c(c1)Sc1ccccc1O2 | 30.3 µM (inactive) | 27.9 µM (inactive) | 22.5 µM (inactive) | 25.9 µM (inactive) | 21.3 µM (inactive) | 42.9 µM (inactive) | 21.5 µM (inactive) | 4.99 µM (inactive) | 28.4 µM | 32.5 µM (inactive) | 47 µM (inactive) | 44.8 µM (inactive) | 29.4 µM (inactive) | 27.6 µM (inactive) | – | 38.9 µM (inactive) | 23.6 µM (inactive) | 38 µM (inactive)
5 | O=C(Nc1ccc(Cl)c(Cl)c1)C(=O)C(C1OC(=O)c2ccccc21)[N+](=O)[O-] (configuration not stated) | > 100 µM (inactive) | > 100 µM (inactive) | 95.1 µM (inactive) | > 100 µM (inactive) | > 100 µM (inactive) | > 100 µM (inactive) | 81.7 µM (inactive) | – | > 100 µM | > 100 µM (inactive) | > 100 µM (inactive) | > 100 µM (inactive) | > 100 µM (inactive) | > 100 µM (inactive) | > 100 µM (inactive) | > 100 µM (inactive) | > 100 µM (inactive) | > 100 µM (inactive)
6 | Cc1cc2c(O)c(c1)COCc1cc(C)cc(c1O)COCc1cc(C)cc(c1O)COC2 | > 100 µM (inactive) | > 100 µM (inactive) | > 100 µM (inactive) | 50.1 µM (inactive) | 32.7 µM (inactive) | > 100 µM (inactive) | > 100 µM (inactive) | > 100 µM (inactive) | > 100 µM | > 100 µM (inactive) | > 100 µM (inactive) | > 100 µM (inactive) | > 100 µM (inactive) | > 100 µM (inactive) | 92 µM (inactive) | – | 47.1 µM (inactive) | –
7 | O=C(O)CSCC(=O)Nc1ccc2cccc3c2c1CC3 | > 100 µM (inactive) | > 100 µM (inactive) | > 100 µM (inactive) | > 100 µM (inactive) | > 100 µM (inactive) | > 100 µM (inactive) | > 100 µM (inactive) | > 100 µM (inactive) | > 100 µM | > 100 µM (inactive) | > 100 µM (inactive) | > 100 µM (inactive) | > 100 µM (inactive) | > 100 µM (inactive) | – | > 100 µM (inactive) | > 100 µM (inactive) | > 100 µM (inactive)
8 | CC(=NNC(=S)Nc1ccccc1)c1cccc(C(C)=NNC(=S)Nc2ccccc2)n1 | 4.99 µM (inactive) | 3.66 µM (inactive) | 3.01 µM (inactive) | 0.968 µM (active) | 3.32 µM (inactive) | 1.61 µM (inactive) | 2.25 µM (inactive) | 0.189 µM (active) | 4.58 µM | > 20.1 µM (inactive) | 1.23 µM (inactive) | – | 3.62 µM (inactive) | 4.48 µM (inactive) | 2.65 µM (inactive) | 2.08 µM (inactive) | 1.75 µM (inactive) | 4.24 µM (inactive)
9 | O=C(c1ccc(Cl)c(Cl)c1)N(Cc1cccnc1)C(=S)N(Cc1cccnc1)C(=O)c1ccc(Cl)c(Cl)c1 | 29.3 µM (inactive) | 29.2 µM (inactive) | 28.4 µM (inactive) | 30.5 µM (inactive) | 25.2 µM (inactive) | 31.3 µM (inactive) | 36.1 µM (inactive) | 49.3 µM (inactive) | 20 µM | 33.2 µM (inactive) | 18.8 µM (inactive) | 36.1 µM (inactive) | 24.4 µM (inactive) | 24.1 µM (inactive) | 44.7 µM (inactive) | – | 20.4 µM (inactive) | 29.9 µM (inactive)
10 | O=C1NC(=O)C(C(c2ccc(Cl)cc2)C2C(=O)NC(=O)NC2=O)C(=O)N1.c1ccncc1 | > 100 µM (inactive) | > 100 µM (inactive) | 58.9 µM (inactive) | > 100 µM (inactive) | > 100 µM (inactive) | > 100 µM (inactive) | > 100 µM (inactive) | > 100 µM (inactive) | > 100 µM | > 100 µM (inactive) | > 100 µM (inactive) | – | > 100 µM (inactive) | > 100 µM (inactive) | > 100 µM (inactive) | > 100 µM (inactive) | > 100 µM (inactive) | > 100 µM (inactive)
11 | Cc1ccc(S(=O)(=O)OCCC2CN(C(=O)OCc3ccccc3)C(C)(C)O2)cc1 (configuration not stated) | 16.7 µM (inactive) | 14.3 µM (inactive) | 6.4 µM (inactive) | 4.2 µM (inactive) | 7.23 µM (inactive) | 2.4 µM (inactive) | 62.2 µM (inactive) | 5.24 µM (inactive) | 3.66 µM | 57.8 µM (inactive) | 12.9 µM (inactive) | – | 13.5 µM (inactive) | > 100 µM (inactive) | 3.47 µM (inactive) | 7.08 µM (inactive) | 11.6 µM (inactive) | 8.75 µM (inactive)
12 | COC(=O)[C@]12CCC(=O)N1[C@H](C(=O)O)Cc1c2[nH]c2ccccc12 | > 100 µM (inactive) | > 100 µM (inactive) | > 100 µM (inactive) | > 100 µM (inactive) | > 100 µM (inactive) | > 100 µM (inactive) | > 100 µM (inactive) | – | > 100 µM | > 100 µM (inactive) | > 100 µM (inactive) | > 100 µM (inactive) | > 100 µM (inactive) | > 100 µM (inactive) | > 100 µM (inactive) | > 100 µM (inactive) | > 100 µM (inactive) | > 100 µM (inactive)
13 | COC(=N)C12C(N)=NC(OC)(OC)C1(C#N)C21C(=O)N(c2ccccc2)N=C1C (configuration not stated) | > 100 µM (inactive) | > 100 µM (inactive) | > 100 µM (inactive) | > 100 µM (inactive) | > 100 µM (inactive) | > 100 µM (inactive) | > 100 µM (inactive) | > 100 µM (inactive) | > 100 µM | > 100 µM (inactive) | > 100 µM (inactive) | > 100 µM (inactive) | > 100 µM (inactive) | > 100 µM (inactive) | > 100 µM (inactive) | > 100 µM (inactive) | > 100 µM (inactive) | –
14 | C#C[C@]1(O)CC[C@H]2[C@@H]3CCC4=C/C(=N/OC(=O)c5cccc6cc7ccccc7nc56)CC[C@@H]4[C@H]3CC[C@@]21CC | > 100 µM (inactive) | > 100 µM (inactive) | > 100 µM (inactive) | > 100 µM (inactive) | > 100 µM (inactive) | > 100 µM (inactive) | > 100 µM (inactive) | > 100 µM (inactive) | > 100 µM | > 100 µM (inactive) | > 100 µM (inactive) | > 100 µM (inactive) | – | > 100 µM (inactive) | > 100 µM (inactive) | > 100 µM (inactive) | > 100 µM (inactive) | –
15 | C=C(C)CCC(O)[C@](C)(O)[C@H]1[C@H](O)C[C@@]2(C)[C@@H]3CCc4c(cc(OC5OC(CO)C(O)C(O)C5O)c(O)c4C)C3(C)C(=O)C[C@]12C (some centres not stated) | > 100 µM (inactive) | > 100 µM (inactive) | > 100 µM (inactive) | > 100 µM (inactive) | > 100 µM (inactive) | > 100 µM (inactive) | > 100 µM (inactive) | – | > 100 µM | > 100 µM (inactive) | > 100 µM (inactive) | > 100 µM (inactive) | > 100 µM (inactive) | > 100 µM (inactive) | > 100 µM (inactive) | > 100 µM (inactive) | > 100 µM (inactive) | > 100 µM (inactive)
16 | CCOC(=O)C(=CNC(=S)N/N=C1\C(=O)Nc2ccccc21)C(=O)OCC | > 100 µM (inactive) | > 100 µM (inactive) | > 100 µM (inactive) | 89.9 µM (inactive) | > 100 µM (inactive) | 48.2 µM (inactive) | 82 µM (inactive) | 31 µM (inactive) | – | > 100 µM (inactive) | > 100 µM (inactive) | 43.8 µM (inactive) | > 100 µM (inactive) | > 100 µM (inactive) | 47.8 µM (inactive) | – | > 100 µM (inactive) | 59.2 µM (inactive)
